Data from ChEMBL document CHEMBL1201862, “PubChem BioAssay data set” (2004).
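A five-concentration, 48-hour dose response in 96-well plates underlies each endpoint, interpolated linearly between surrounding concentrations. Here, GI50 denotes the concentration required for 50% inhibition of growth.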 Calls of active or inactive are those of the source. Rule as the data show it: active = GI50 up to about 1.1 µM and inactive = higher.

Key:
Experiment in all cases: growth of human tumour cells (NCI), 48 h
[1] = tested on: HCC 2998
[2] = tested on: 786-0
[3] = tested on: T47D
[4] = tested on: CCRF-CEM
[5] = tested on: UO-31
[6] = tested on: MDA-MB-435
[7] = tested on: RXF 393
[8] = tested on: MCF7
[9] = tested on: ACHN
[10] = tested on: OVCAR-4
[11] = tested on: SR
[12] = tested on: MOLT-4
[13] = tested on: OVCAR-3
[14] = tested on: CAKI-1
[15] = tested on: SW-620
[16] = tested on: UACC-62
[17] = tested on: A549
[18] = tested on: BT-549
[19] = tested on: NCI-H23

SMILES | GI50 [1] | GI50 [2] | GI50 [3] | GI50 [4] | GI50 [5] | GI50 [6] | GI50 [7] | GI50 [8] | GI50 [9] | GI50 [10] | GI50 [11] | GI50 [12] | GI50 [13] | GI50 [14] | GI50 [15] | GI50 [16] | GI50 [17] | GI50 [18] | GI50 [19]
N#Cc1c(N)nc(Sc2ccccc2N)c(C#N)c1-c1ccc(Cl)cc1 | 9.73 µM (inactive) | 6.98 µM (inactive) | 0.368 µM (active) | > 27.2 µM (inactive) | 2.79 µM (inactive) | 11.7 µM (inactive) | 16 µM (inactive) | 7.05 µM (inactive) | 10.7 µM (inactive) | 17.8 µM (inactive) | 1 µM (active) | 1.37 µM (inactive) | 6.34 µM (inactive) | 17.9 µM (inactive) | > 33.3 µM (inactive) | 4.06 µM (inactive) | 9.4 µM (inactive) | 4.21 µM (inactive) | 21.4 µM (inactive)
Nc1nc(Cl)cc(NCC2(CO)CCC2)n1 | > 100 µM (inactive) | > 100 µM (inactive) | 29.7 µM (inactive) | > 100 µM (inactive) | > 100 µM (inactive) | > 100 µM (inactive) | > 100 µM (inactive) | > 100 µM (inactive) | > 100 µM (inactive) | > 100 µM (inactive) | > 100 µM (inactive) | > 100 µM (inactive) | > 100 µM (inactive) | > 100 µM (inactive) | > 100 µM (inactive) | 99.3 µM (inactive) | > 100 µM (inactive) | > 100 µM (inactive) | > 100 µM (inactive)
O=C1CC[N+]2=Cc3ccccc3O[B-]2(c2ccccc2)O1 (centres undefined) | > 100 µM (inactive) | > 100 µM (inactive) | > 100 µM (inactive) | > 100 µM (inactive) | > 100 µM (inactive) | > 100 µM (inactive) | > 100 µM (inactive) | > 100 µM (inactive) | > 100 µM (inactive) | > 100 µM (inactive) | > 100 µM (inactive) | > 100 µM (inactive) | > 100 µM (inactive) | > 100 µM (inactive) | > 100 µM (inactive) | > 100 µM (inactive) | > 100 µM (inactive) | > 100 µM (inactive) | > 100 µM (inactive)
CSC1=C(C)S/C(=C\c2ccc(/C=C3\SC(C)=C(SC)S3)cc2)S1 | > 100 µM (inactive) | > 100 µM (inactive) | > 100 µM (inactive) | > 100 µM (inactive) | > 100 µM (inactive) | > 100 µM (inactive) | 21.6 µM (inactive) | > 100 µM (inactive) | > 100 µM (inactive) | > 100 µM (inactive) | > 100 µM (inactive) | > 100 µM (inactive) | > 100 µM (inactive) | > 100 µM (inactive) | > 100 µM (inactive) | > 100 µM (inactive) | > 100 µM (inactive) | > 100 µM (inactive) | > 100 µM (inactive)
O=C1CCCc2cc3c(cc21)CC1(C3)Cc2cc3c(cc2C1)C(=O)CCC3 | 2.34 µM (inactive) | 2.58 µM (inactive) | 9.48 µM (inactive) | 0.998 µM (active) | 5.55 µM (inactive) | 0.231 µM (active) | 1.45 µM (inactive) | 0.484 µM (active) | 2.86 µM (inactive) | 4.43 µM (inactive) | 0.106 µM (active) | 1 µM (active) | 1.57 µM (inactive) | 1.91 µM (inactive) | 0.815 µM (active) | 0.531 µM (active) | 1.39 µM (inactive) | 0.653 µM (active) | 2.2 µM (inactive)
O=C(O)c1ccc(Nc2cnc3ccc(C(F)(F)F)cc3n2)cc1 | 6.61 µM (inactive) | 38.9 µM (inactive) | 6.07 µM (inactive) | 15.6 µM (inactive) | 13.7 µM (inactive) | 31.6 µM (inactive) | 12.6 µM (inactive) | 33 µM (inactive) | 18 µM (inactive) | 18.9 µM (inactive) | 20.4 µM (inactive) | 19.9 µM (inactive) | 28.2 µM (inactive) | 14.4 µM (inactive) | 20.9 µM (inactive) | 14 µM (inactive) | 13.4 µM (inactive) | 20.9 µM (inactive) | 17 µM (inactive)
CC(=O)O[C@H]1C(=O)[C@@]2(C)[C@H]([C@H](OC(=O)c3cccc(C(F)(F)F)c3)[C@]3(O)C[C@H](OC(=O)[C@H](O)[C@@H](NC(=O)c4ccccc4)c4ccccc4)C(C)=C1C3(C)C)[C@]1(OC(C)=O)CO[C@@H]1C[C@@H]2O | 0.0111 µM (active) | 0.00439 µM (active) | 0.00455 µM (active) | < 0.0025 µM (active) | 0.918 µM (active) | < 0.0025 µM (active) | 0.0222 µM (active) | < 0.0025 µM (active) | 0.377 µM (active) | 0.336 µM (active) | < 0.0025 µM (active) | 0.00427 µM (active) | < 0.0025 µM (active) | 0.906 µM (active) | < 0.0025 µM (active) | 0.00526 µM (active) | 0.00261 µM (active) | 0.035 µM (active) | 0.0115 µM (active)
C/C(=N\NC(N)=S)c1ccccn1.OB(O)c1ccccc1 | 4.36 µM (inactive) | 3.73 µM (inactive) | 3.8 µM (inactive) | 2.18 µM (inactive) | 2.39 µM (inactive) | 7.55 µM (inactive) | 2.37 µM (inactive) | 4.55 µM (inactive) | 2.04 µM (inactive) | 4.25 µM (inactive) | 3.95 µM (inactive) | 2.07 µM (inactive) | 2.62 µM (inactive) | 3.63 µM (inactive) | 5.93 µM (inactive) | 3.25 µM (inactive) | 5.51 µM (inactive) | 8.15 µM (inactive) | 11.3 µM (inactive)
O=C(Nc1nc(C23CC4CC(CC(C4)C2)C3)cs1)c1cc2cc(Br)cc(Br)c2oc1=O | 75.7 µM (inactive) | 32.9 µM (inactive) | > 100 µM (inactive) | 27.7 µM (inactive) | > 100 µM (inactive) | 67.5 µM (inactive) | 31 µM (inactive) | > 100 µM (inactive) | > 100 µM (inactive) | 58.1 µM (inactive) | 32.3 µM (inactive) | 50.1 µM (inactive) | 61.4 µM (inactive) | > 100 µM (inactive) | 43.2 µM (inactive) | > 100 µM (inactive) | 53 µM (inactive) | > 100 µM (inactive) | > 100 µM (inactive)
CCOC(=O)c1cn(CC)c(=O)n2c1nc1ccccc12 | 96.8 µM (inactive) | 58.5 µM (inactive) | 63.5 µM (inactive) | 28.4 µM (inactive) | 3.48 µM (inactive) | > 100 µM (inactive) | 61.9 µM (inactive) | 54.6 µM (inactive) | 55 µM (inactive) | 35.3 µM (inactive) | 28.4 µM (inactive) | 14.1 µM (inactive) | 83.8 µM (inactive) | 57.9 µM (inactive) | > 100 µM (inactive) | 57.5 µM (inactive) | 58.7 µM (inactive) | 56.9 µM (inactive) | 55.7 µM (inactive)
C/C(=N\NC(=S)NC(C)(C)C)c1nc2cccnc2[nH]1 | 3.79 µM (inactive) | 3.02 µM (inactive) | 0.427 µM (active) | 0.955 µM (active) | 1.06 µM (active) | 5.37 µM (inactive) | 4.92 µM (inactive) | 0.309 µM (active) | 2.82 µM (inactive) | 0.634 µM (active) | 4.9 µM (inactive) | 2.13 µM (inactive) | 0.384 µM (active) | 3.33 µM (inactive) | 3.47 µM (inactive) | 2.57 µM (inactive) | 3.29 µM (inactive) | 2.55 µM (inactive) | 8.26 µM (inactive)
